The target in this assay is human full-length MKNK1 (Homo sapiens (Human), UniProt Q9BUB5, T344D). The experiment in a line: MKNK1 kinase high ATP assay (TR-FRET). The assay is classed as biochemical. The following applies: high ATP (2 mM final), 15 min preincubation with enzyme. The method, then: MKNK1-inhibitory activity at high ATP of compounds of the present invention after their preincubation with MKNK1 was quantified employing the TR-FRET-based MKNK1 high ATP assay as described in the following paragraphs.
Chain of human full-length MKNK1 (Q9BUB5 other isoform, or with tags, fused parts or gaps T344D): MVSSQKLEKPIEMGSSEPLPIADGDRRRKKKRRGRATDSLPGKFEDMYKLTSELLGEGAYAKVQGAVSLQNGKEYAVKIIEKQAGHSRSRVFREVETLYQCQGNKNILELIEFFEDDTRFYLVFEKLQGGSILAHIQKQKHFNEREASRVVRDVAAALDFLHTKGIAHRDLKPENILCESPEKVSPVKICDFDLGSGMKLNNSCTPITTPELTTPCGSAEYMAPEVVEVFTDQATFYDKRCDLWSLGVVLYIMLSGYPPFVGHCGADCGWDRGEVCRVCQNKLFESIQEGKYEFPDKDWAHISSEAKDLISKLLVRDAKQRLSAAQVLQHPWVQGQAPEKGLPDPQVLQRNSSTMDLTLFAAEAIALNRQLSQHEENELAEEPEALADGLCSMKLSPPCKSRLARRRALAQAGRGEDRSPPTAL
A recombinant fusion protein of Glutathione-S-Transferase (GST, N-terminally) and human full-length MKNK1 (amino acids 1-424 and T344D of accession number BAA 19885.1), expressed in insect cells using baculovirus expression system and purified via glutathione sepharose affinity chromatography, was purchased from Carna Biosciences (product no 02-145) and used as enzyme. As substrate for the kinase reaction the biotinylated peptide biotin-Ahx-IKKRKLTRRKSLKG (C-terminus in amide form) was used, which can be purchased e.g. from the company Biosyntan (Berlin-Buch, Germany).
For the assay 50 nL of a 100 fold concentrated solution of the test compound in DMSO was pipetted into a black low volume 384 well microtiter plate (Greiner Bio-One, Frickenhausen, Germany), 2 μL of a solution of MKNK1 in aqueous assay buffer [50 mM HEPES pH 7.5, 5 mM MgCl2, 1.0 mM dithiothreitol, 0.005% (v/v) Nonidet-P40 (Sigma)] was added and the mixture was incubated for 15 min at 22° C. to allow pre-binding of the test compounds to the enzyme before the start of the kinase reaction. Then the kinase reaction was started by the addition of 3 μL of a solution of adenosine-tri-phosphate (ATP, 3.3 mM=>final conc. in the 5 μL assay volume is 2 mM) and substrate (0.1 μM=>final conc. in the 5 μL assay volume is 0.06 μM) in assay buffer and the resulting mixture was incubated for a reaction time of 30 min at 22° C. The concentration of MKNK1 was adjusted depending of the activity of the enzyme lot and was chosen appropriate to have the assay in the linear range, typical concentrations were in the range of 0.003 μg/mL. The reaction was stopped by the addition of 5 μL of a solution of TR-FRET detection reagents (5 nM streptavidine-XL665 [Cisbio Bioassays, Codolet, France] and 1 nM anti-ribosomal protein S6 (pSer236)-antibody from Invitrogen [#44921G] and 1 nM LANCE EU-W1024 labeled ProteinG [Perkin-Elmer, product no. AD0071]) in an aqueous EDTA-solution (100 mM EDTA, 0.1% (w/v) bovine serum albumin in 50 mM HEPES pH 7.5).
The resulting mixture was incubated for 1 h at 22° C. to allow the formation of complex between the phosphorylated biotinylated peptide and the detection reagents. Subsequently the amount of phosphorylated substrate was evaluated by measurement of the resonance energy transfer from the Eu-chelate to the streptavidine-XL. Therefore, the fluorescence emissions at 620 nm and 665 nm after excitation at 350 nm were measured in a TR-FRET reader, e.g. a Rubystar (BMG Labtechnologies, Offenburg, Germany) or a Viewlux (Perkin-Elmer). The ratio of the emissions at 665 nm and at […] was taken as the measure for the amount of phosphorylated substrate. The data were normalised (enzyme reaction without inhibitor=0% inhibition, all other assay components but no enzyme=100% inhibition).
`CN(CCC#N)C(=O)C1CCc2c(sc3ncnc(Nc4ccc5[nH]c(=O)sc5c4)c23)C1` (racemic) [Example 48, (RS)-N-(2-cyanoethyl)-N-methyl-4-[(2-oxo-2,3-dihydro-1,3-benzothiazol-6-yl)amino]-5,6,7,8-tetrahydro[1]benzothieno[2,3-d]pyrimidine-7-carboxamide] showed an IC50 of 65 nM. In the case of `CN(CC#N)C(=O)C1CCc2c(sc3ncnc(Nc4ccc5[nH]c(=O)sc5c4)c23)C1` (racemic) [Example 49, (RS)-N-(cyanomethyl)-N-methyl-4-[(2-oxo-2,3-dihydro-1,3-benzothiazol-6-yl)amino]-5,6,7,8-tetrahydro[1]benzothieno[2,3-d]pyrimidine-7-carboxamide] it was 45 nM; in that of `CC1CCN(C(=O)C2CCc3c(sc4ncnc(Nc5ccc6[nH]c(=O)sc6c5)c34)C2)CC1` (racemic) [Example 50, (RS)-6-({7-[(4-methylpiperidin-1-yl)carbonyl]-5,6,7,8-tetrahydro[1]benzothieno[2,3-d]pyrimidin-4-yl}amino)-1,3-benzothiazol-2(3H)-one], 43 nM; in that of `O=C(C1CCc2c(sc3ncnc(Nc4ccc5[nH]c(=O)sc5c4)c23)C1)N1CCC(O)C1` (racemic) [Example 51, 6-{[(7RS)-7-{[(3RS)-3-hydroxypyrrolidin-1-yl]carbonyl}-5,6,7,8-tetrahydro[1]benzothieno[2,3-d]pyrimidin-4-yl]amino}-1,3-benzothiazol-2(3H)-one], 75 nM. Molecule `COCCN(CCOC)C(=O)C1CCc2c(sc3ncnc(Nc4ccc5[nH]c(=O)sc5c4)c23)C1` (racemic) [Example 52, (RS)-N,N-bis(2-methoxyethyl)-4-[(2-oxo-2,3-dihydro-1,3-benzothiazol-6-yl)amino]-5,6,7,8-tetrahydro[1]benzothieno[2,3-d]pyrimidine-7-carboxamide] came in with an IC50 of 30 nM. The molecule `O=C(C1CCc2c(sc3ncnc(Nc4ccc5[nH]c(=O)sc5c4)c23)C1)N1CCCC(O)C1` (racemic) [Example 53, 6-{[(7RS)-7-{[(3RS)-3-hydroxypiperidin-1-yl]carbonyl}-5,6,7,8-tetrahydro[1]benzothieno[2,3-d]pyrimidin-4-yl]amino}-1,3-benzothiazol-2(3H)-one] yielded an IC50 of 52 nM. In the case of `CC(C)N(CCO)C(=O)C1CCc2c(sc3ncnc(Nc4ccc5[nH]c(=O)sc5c4)c23)C1` (racemic) [Example 54, (RS)-N-(2-hydroxyethyl)-N-isopropyl-4-[(2-oxo-2,3-dihydro-1,3-benzothiazol-6-yl)amino]-5,6,7,8-tetrahydro[1]benzothieno[2,3-d]pyrimidine-7-carboxamide] it was 28 nM; in that of `O=C(C1CCc2c(sc3ncnc(Nc4ccc5[nH]c(=O)sc5c4)c23)C1)N1Cc2ccccc2C1` (racemic) [Example 55, (RS)-6-{[7-(1,3-dihydro-2H-isoindol-2-ylcarbonyl)-5,6,7,8-tetrahydro[1]benzothieno[2,3-d]pyrimidin-4-yl]amino}-1,3-benzothiazol-2(3H)-one], 72 nM. On to `CN(CC1CCCO1)C(=O)C1CCc2c(sc3ncnc(Nc4ccc5[nH]c(=O)sc5c4)c23)C1` (racemic) [Example 56, (7RS)-N-methyl-4-[(2-oxo-2,3-dihydro-1,3-benzothiazol-6-yl)amino]-N-[(2RS)-tetrahydrofuran-2-ylmethyl]-5,6,7,8-tetrahydro[1]benzothieno[2,3-d]pyrimidine-7-carboxamide], for which the IC50 was 27 nM. In the case of `O=C(C1CCc2c(sc3ncnc(Nc4ccc5[nH]c(=O)sc5c4)c23)C1)N1CCN(CCCO)CC1` (racemic) [Example 57, (RS)-6-[(7-{[4-(3-hydroxypropyl)piperazin-1-yl]carbonyl}-5,6,7,8-tetrahydro[1]benzothieno[2,3-d]pyrimidin-4-yl)amino]-1,3-benzothiazol-2(3H)-one] it was 39 nM. Next, `CC(C)CN(C)C(=O)C1CCc2c(sc3ncnc(Nc4ccc5[nH]c(=O)sc5c4)c23)C1` (racemic) [Example 58, (RS)-N-isobutyl-N-methyl-4-[(2-oxo-2,3-dihydro-1,3-benzothiazol-6-yl)amino]-5,6,7,8-tetrahydro[1]benzothieno[2,3-d]pyrimidine-7-carboxamide]: 63 nM; `CCN(C)C(=O)C1CCc2c(sc3ncnc(Nc4ccc5[nH]c(=O)sc5c4)c23)C1` (racemic) [Example 59, (RS)-N-ethyl-N-methyl-4-[(2-oxo-2,3-dihydro-1,3-benzothiazol-6-yl)amino]-5,6,7,8-tetrahydro[1]benzothieno[2,3-d]pyrimidine-7-carboxamide]: 40 nM; `CCN1CCN(C(=O)C2CCc3c(sc4ncnc(Nc5ccc6[nH]c(=O)sc6c5)c34)C2)CC1` (racemic) [Example 60, (RS)-6-({7-[(4-ethylpiperazin-1-yl)carbonyl]-5,6,7,8-tetrahydro[1]benzothieno[2,3-d]pyrimidin-4-yl}amino)-1,3-benzothiazol-2(3H)-one]: 36 nM.

As to `CC(=O)N(C)C1CCN(C(=O)C2CCc3c(sc4ncnc(Nc5ccc6[nH]c(=O)sc6c5)c34)C2)C1` (racemic) [Example 61, N-methyl-N-[(3RS)-1-({(7RS)-4-[(2-oxo-2,3-dihydro-1,3-benzothiazol-6-yl)amino]-5,6,7,8-tetrahydro[1]benzothieno[2,3-d]pyrimidin-7-yl}carbonyl)pyrrolidin-3-yl]acetamide], the half-maximal inhibitory concentration (IC50) amounted to 32 nM. Take `CN(C)C(=O)CN(C)C(=O)C1CCc2c(sc3ncnc(Nc4ccc5[nH]c(=O)sc5c4)c23)C1` (racemic) [Example 62, (RS)-N-[2-(dimethylamino)-2-oxoethyl]-N-methyl-4-[(2-oxo-2,3-dihydro-1,3-benzothiazol-6-yl)amino]-5,6,7,8-tetrahydro[1]benzothieno[2,3-d]pyrimidine-7-carboxamide]: the IC50 turned out to be 40 nM. `CCN(CCC#N)C(=O)C1CCc2c(sc3ncnc(Nc4ccc5[nH]c(=O)sc5c4)c23)C1` (racemic) [Example 63, (RS)-N-(2-cyanoethyl)-N-ethyl-4-[(2-oxo-2,3-dihydro-1,3-benzothiazol-6-yl)amino]-5,6,7,8-tetrahydro[1]benzothieno[2,3-d]pyrimidine-7-carboxamide] gave an IC50 of 38 nM.

`O=C(C1CCc2c(sc3ncnc(Nc4ccc5[nH]c(=O)sc5c4)c23)C1)N1CCN2CCCCC2C1` (racemic) [Example 64, 6-({(7RS)-7-[(9aRS)-octahydro-2H-pyrido[1,2-a]pyrazin-2-ylcarbonyl]-5,6,7,8-tetrahydro[1]benzothieno[2,3-d]pyrimidin-4-yl}amino)-1,3-benzothiazol-2(3H)-one]: 27 nM corresponded to half-maximal inhibition (IC50). In turn, `O=C(C1CCc2c(sc3ncnc(Nc4ccc5[nH]c(=O)sc5c4)c23)C1)N1CCCC(F)C1` (racemic) [Example 65, 6-{[(7RS)-7-{[(3RS)-3-fluoropiperidin-1-yl]carbonyl}-5,6,7,8-tetrahydro[1]benzothieno[2,3-d]pyrimidin-4-yl]amino}-1,3-benzothiazol-2(3H)-one] returned an IC50 of 81 nM. `CN(CCCCO)C(=O)C1CCc2c(sc3ncnc(Nc4ccc5[nH]c(=O)sc5c4)c23)C1` (racemic) [Example 66, (RS)-N-(4-hydroxybutyl)-N-methyl-4-[(2-oxo-2,3-dihydro-1,3-benzothiazol-6-yl)amino]-5,6,7,8-tetrahydro[1]benzothieno[2,3-d]pyrimidine-7-carboxamide] displayed a 50% inhibitory concentration (IC50) of 34 nM.

`CN(CCCO)C(=O)C1CCc2c(sc3ncnc(Nc4ccc5[nH]c(=O)sc5c4)c23)C1` (racemic) [Example 67, (RS)-N-(3-hydroxypropyl)-N-methyl-4-[(2-oxo-2,3-dihydro-1,3-benzothiazol-6-yl)amino]-5,6,7,8-tetrahydro[1]benzothieno[2,3-d]pyrimidine-7-carboxamide] came in with a concentration for half-maximal inhibition (IC50) of 62 nM. On to `CC1CN(C(=O)C2CCc3c(sc4ncnc(Nc5ccc6[nH]c(=O)sc6c5)c34)C2)CC(C)O1` (racemic) [Example 68, 6-{[(7RS)-7-{[(2RS,6RS)-2,6-dimethylmorpholin-4-yl]carbonyl}-5,6,7,8-tetrahydro[1]benzothieno[2,3-d]pyrimidin-4-yl]amino}-1,3-benzothiazol-2(3H)-one], for which the IC50 was determined as 32 nM.

These data come from patent publication US9296757B2, “Substituted benzothienopyrimidines” (BAYER PHARMA AKTIENGESELLSCHAFT, priority 2012, dated 2016).
